One block for each molecule: values may come before it.
Legend:
[1] = Plasma protein binding, rat; assay type: in vitro ADME; conditions: pH 7.4, read-out: PPB % rat (converted)
Protocol: (§1) Plasma protein binding was determined by equilibrium dialysis using the Pierce Red Device plate with inserts (ThermoScientific). Test compound at 5 μM (0.5% DMSO) spiked in freshly thawed human, rat, mouse, or dog plasma (Bioreclamation INC, Westbury, NY, USA) was dialyzed against phosphate-buffered saline (PBS, pH 7.4) at 37 °C under shaking for 4 h. Aliquots were taken from each side of the well, and matrix matched. Proteins were precipitated with an excess of acetonitrile, samples were mixed and centrifuged, and the supernatant was analyzed by liquid chromatography–mass spectrometry/mass spectrometry (LC–MS/MS). Addition of compound peak areas in the buffer chamber and the plasma chamber was considered to be 100% compound.

[2] = Plasma protein binding, human; assay type: in vitro ADME; conditions: human, plasma, pH 7.4, human plasma; read-out: PPB % human (converted)
Protocol: as §1

[3] = PK rat; assay type: in vivo
Protocol: These studies were performed with naïve male Sprague–Dawley rats (Janvier France, 6–8 weeks old). Rats were dosed iv via a bolus in the tail vein with a dose level of 0.1 mg/kg or orally as a single esophageal gavage with a dose level of 5 mg/kg. For the iv route, the compound was formulated in PEG200/water (60/40; v/v). For the oral route, the compound was formulated in MC 0.5% (2/98) as a homogeneous suspension. Before the oral dosing, the animals were deprived of food for at least 12 h before compound administration until 3 h after administration. All animals had free access to the tap water. Blood samples were collected under light anesthesia and placed into tubes containing Li-heparin as an anticoagulant. Blood samples were collected up to 24 h after dosing (n = 3 rats per route). After centrifugation, the resulting plasma samples were assayed by LC-MS/MS with a nongood laboratory practice (non-GLP)-validated method. PK parameters were calculated by noncompartmental analysis using WinNonlin software (Certara, Princeton, NJ, USA).

[4] = tested on: CYP3A4; experiment: CYP3A4 induction (mRNA) in human hepatocytes; assay type: in vitro ADME; conditions: for CYP (3A4) mRNA induction, result in words: compared with positive control rifampicin
Protocol: Cryopreserved human hepatocytes from a single donor were seeded at 0.1 × 10^6 cells/well. The next day, cells were dosed with test compound in assay medium (final test compound concentration 10 μM; final DMSO concentration 0.1%). Positive control inducer, rifampicin, for CYP3A4, was incubated alongside the test compound. Negative control wells were included where the test compound is replaced by vehicle solvent (0.1% DMSO in assay medium). Each test or control compound was dosed in triplicate at a single concentration (10 μM). The cells were exposed to the solutions for 72 h with fresh solution added every 24 h. For mRNA assessment, all media was removed from each of the wells, and the cells were washed once. The cells were lysed, and total RNA was then isolated from the hepatocyte lysates. Reverse transcription was performed, and quantitative PCR analysis was performed on the resulting cDNA, using gene-specific primer probe sets for CYP3A4 target cDNA and endogenous control. Samples were analyzed using an ABI 7900 HT real time PCR system. For mRNA assessment, relative fold mRNA expression was determined based on the threshold cycle (CT) data of target gene relative to endogenous control for each reaction and normalized to negative control using the 2-ΔΔCT method. Data were expressed as fold activation relative to the vehicle control and, as a percent, to the 10 μM rifampicin using the following formula: % of positive control = ((fold increase of the cpd relative to vehicle control – 1)/(fold increase of the rifampicin at 10 μM – 1)) × 100.

[5] = target: T1, CYP2C9 (Homo sapiens, UniProt P11712); experiment: CYP reversible inhibition in HLM, CYP2C9; assay type: in vitro ADME; conditions: probe not given; read-out: CYP inhibition IC50, 2C9
T1 construct: tissue BD Gentest; host or cells: human liver microsomes
T1 sequence (P11712 whole entry): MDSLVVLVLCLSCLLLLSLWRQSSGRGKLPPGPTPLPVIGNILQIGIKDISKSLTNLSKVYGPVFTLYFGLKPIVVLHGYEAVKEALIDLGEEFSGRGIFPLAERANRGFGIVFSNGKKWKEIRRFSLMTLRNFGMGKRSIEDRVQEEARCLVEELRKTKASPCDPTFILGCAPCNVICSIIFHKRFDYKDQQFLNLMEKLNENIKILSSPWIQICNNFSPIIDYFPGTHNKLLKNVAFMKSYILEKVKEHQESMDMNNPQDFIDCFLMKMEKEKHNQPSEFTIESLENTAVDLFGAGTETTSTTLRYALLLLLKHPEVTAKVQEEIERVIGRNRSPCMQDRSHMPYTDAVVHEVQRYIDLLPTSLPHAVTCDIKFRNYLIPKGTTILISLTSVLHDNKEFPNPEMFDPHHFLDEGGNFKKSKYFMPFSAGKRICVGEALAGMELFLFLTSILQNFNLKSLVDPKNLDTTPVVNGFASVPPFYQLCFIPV
Protocol: (§2) Test compounds were diluted in methanol and then added to mixture containing 50 mM potassium phosphate buffer, pH 7.4, human liver microsomes (BD Gentest) and probe substrate. After prewarming for 5 min at 37 °C, the reaction was started by adding cofactor mix (7.65 mg/mL glucose-6-phosphate, 1.7 mg/mL NADP, 6 U/mL of glucose-6-phosphate dehydrogenase), resulting in seven final concentrations of test compounds in the range 0.14–100 μM (2% methanol). Isoform specific conditions regarding probe substrate and microsomal protein concentrations are available in Table 2. Final concentrations of cofactor mix components were as follows: 1.56 mg/mL glucose-6-phosphate, 0.34 mg/mL NADP, and 1.2 U/mL glucose-6-phosphate dehydrogenase. After incubation at 37 °C, the reaction was terminated with acetonitrile:methanol (2:1) solution with internal standard. Samples were centrifuged, and the supernatant fractions were analyzed by LC-MS/MS. The instrument responses (test compounds and internal standard peak areas) were referenced to those for solvent controls (assumed as 100%) in order to determine the percentage reduction in probe metabolism. Percent of control activity vs concentration plots were generated and fitted using GraphPad Prism software to generate IC50.

[6] = tested on: cytochrome P450 subtypes except 2C9; experiment: CYP inhibition, all subtypes except 2C9; assay type: in vitro ADME; conditions: human, liver microsomes, pH 7.4
Protocol: as §2

[7] = target: CYP3A4 enzyme (Homo sapiens, UniProt P08684); experiment: Mechanism-based inactivation of CYP3A4; assay type: in vitro ADME
CYP3A4 enzyme, sequence (P08684 whole entry): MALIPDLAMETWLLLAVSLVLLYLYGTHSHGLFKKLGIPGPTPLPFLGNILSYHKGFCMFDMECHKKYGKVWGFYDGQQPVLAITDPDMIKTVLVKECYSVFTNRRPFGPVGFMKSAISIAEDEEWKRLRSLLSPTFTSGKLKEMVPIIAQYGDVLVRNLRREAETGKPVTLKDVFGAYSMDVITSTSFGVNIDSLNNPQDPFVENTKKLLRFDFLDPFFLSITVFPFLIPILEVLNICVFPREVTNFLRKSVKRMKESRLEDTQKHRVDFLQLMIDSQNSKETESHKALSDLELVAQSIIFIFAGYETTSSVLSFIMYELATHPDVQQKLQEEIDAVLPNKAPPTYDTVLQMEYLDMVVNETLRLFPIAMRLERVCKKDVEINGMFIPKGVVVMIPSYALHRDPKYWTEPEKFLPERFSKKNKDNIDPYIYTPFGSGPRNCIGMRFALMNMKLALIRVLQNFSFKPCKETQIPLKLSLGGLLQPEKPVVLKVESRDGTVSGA

[8] = target: T2, ΔF508 CFTR (Homo sapiens, UniProt P13569, DEL508-508); experiment: TECC (transepithelial clamp circuit) in primary CF-derived HBE cells; assay type: cell-based
T2 construct: host or cells: CFBE41o- TetON cells, expression induced with doxycycline
T2 sequence (P13569 with tags, fused parts or gaps DEL508-508): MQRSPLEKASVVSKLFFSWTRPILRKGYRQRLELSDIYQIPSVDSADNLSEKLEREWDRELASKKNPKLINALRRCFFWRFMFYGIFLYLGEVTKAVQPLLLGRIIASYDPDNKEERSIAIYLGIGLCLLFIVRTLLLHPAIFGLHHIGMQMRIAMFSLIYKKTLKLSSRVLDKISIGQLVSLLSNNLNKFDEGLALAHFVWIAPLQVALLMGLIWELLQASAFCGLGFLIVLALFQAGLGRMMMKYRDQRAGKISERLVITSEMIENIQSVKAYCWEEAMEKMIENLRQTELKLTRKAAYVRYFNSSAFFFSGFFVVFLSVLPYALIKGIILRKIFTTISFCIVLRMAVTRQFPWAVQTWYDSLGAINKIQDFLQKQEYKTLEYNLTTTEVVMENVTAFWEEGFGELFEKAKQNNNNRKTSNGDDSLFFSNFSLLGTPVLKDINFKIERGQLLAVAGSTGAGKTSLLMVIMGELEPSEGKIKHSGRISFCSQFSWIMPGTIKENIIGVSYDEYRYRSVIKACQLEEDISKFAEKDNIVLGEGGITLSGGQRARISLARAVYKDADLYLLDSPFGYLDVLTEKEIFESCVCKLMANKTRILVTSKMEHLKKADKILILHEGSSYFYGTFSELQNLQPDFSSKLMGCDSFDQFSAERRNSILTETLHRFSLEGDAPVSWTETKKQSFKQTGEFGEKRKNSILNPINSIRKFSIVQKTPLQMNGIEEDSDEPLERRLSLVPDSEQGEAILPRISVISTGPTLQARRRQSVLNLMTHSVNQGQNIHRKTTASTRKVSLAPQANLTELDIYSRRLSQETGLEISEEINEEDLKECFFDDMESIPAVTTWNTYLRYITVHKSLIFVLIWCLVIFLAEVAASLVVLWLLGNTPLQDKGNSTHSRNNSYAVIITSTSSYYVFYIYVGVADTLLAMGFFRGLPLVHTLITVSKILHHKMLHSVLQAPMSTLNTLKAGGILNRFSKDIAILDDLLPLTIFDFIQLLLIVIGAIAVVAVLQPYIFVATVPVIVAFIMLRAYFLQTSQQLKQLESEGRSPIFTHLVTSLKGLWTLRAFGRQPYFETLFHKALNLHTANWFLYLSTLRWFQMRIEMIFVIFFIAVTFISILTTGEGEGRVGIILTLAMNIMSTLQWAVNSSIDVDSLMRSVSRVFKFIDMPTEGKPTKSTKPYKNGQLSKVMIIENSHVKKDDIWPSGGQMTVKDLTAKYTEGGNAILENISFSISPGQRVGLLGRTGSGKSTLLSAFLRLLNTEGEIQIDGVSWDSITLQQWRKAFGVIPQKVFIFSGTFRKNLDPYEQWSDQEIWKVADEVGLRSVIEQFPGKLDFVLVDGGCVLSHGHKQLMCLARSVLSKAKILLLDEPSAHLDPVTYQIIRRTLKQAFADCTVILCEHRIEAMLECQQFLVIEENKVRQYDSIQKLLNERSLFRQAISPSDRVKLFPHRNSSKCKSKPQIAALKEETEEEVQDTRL
Protocol: Bronchial epithelial cells isolated from the lungs of patients with CF homozygous for the ΔF508 CFTR mutation were obtained from McGill University (Montreal, QC, Canada) or the University of North Carolina (Chapel Hill, NC, United States). Cells were isolated from lungs obtained from donors undergoing planned transplantation. These primary cells were cultured directly on type IV collagen-coated polycarbonate Transwell supports with a diameter of 6.5 mm and pore size of 0.4 μm (Costar, #3397) for 18–25 days in an air–liquid interface, essentially as previously described for TECC.[23]
Twenty-four hours prior to the electrophysiological recording, corrector and/or potentiator compounds were added on both the apical and basolateral sides. TECC recordings were performed by using the TECC instrument developed and sold by EP Design (Bertem, Belgium). During the recording, the epithelial cells were bathed in a NaCl-Ringer solution (120 mM NaCl, 20 mM HEPES, 1.2 mM CaCl2, 1.2 mM MgCl2, 0.8 mM KH2PO4, 0.8 mM K2HPO4, 5 mM glucose, pH 7.4) on both the basolateral (640 μL) and the apical (160 μL) sides and kept at 37 °C. Corrector and potentiator compounds were readded at the same concentration used during the 24 h pretreatment. Apical amiloride was used to inhibit the endogenous ENaC currents (100 μM), while forskolin (10 μM) was applied on both the apical and basolateral sides to stimulate CFTR. Measurements were done during a 20 min time frame with recordings every 2 min. The transepithelial potential and transepithelial resistance were measured in an open circuit and transformed to Ieq using Ohm’s law. The maximal increase in Ieq (ΔIeq, the difference in current before and after forskolin or potentiator treatment) was used as a measure for the increased CFTR activity. EC50 values were generated by measuring the impact of different concentrations of compounds on ΔIeq in primary cells. For this purpose, each transwell was treated with a different compound concentration. CFTRInh-172 was added apically at 10 μM to assess the specificity of the response. Dose response data was fitted using a 3-parameter hill function of the form Response = Bottom + (Top – Bottom)/(1 + (EC50/concentration)) to determine EC50 values. Percentage efficacy was calculated using the following formula: (max response – neg control)/(C1 response – neg control).

[9] = Plasma protein binding, dog; assay type: in vitro ADME; conditions: dog, plasma, pH 7.4, dog plasma; read-out: PPB % dog (converted)
Protocol: as §1

[10] = PK dog; assay type: in vivo; conditions: iv
Protocol: These studies were performed with non-naïve male Beagle dogs (age 13.8 months old, origin: Marshall US, North Rose, NY 14516, USA; age 15.8 months old, origin: Harlan; age 17.7 months old, origin: Harlan). Dogs (n = 3) were dosed iv via a 10 min infusion via a catheter with a dose level of 1 mg/kg. After a washout of 3 days, they were dosed orally as a single gavage with a dose level of 5 or 1 mg/kg in PEG400/MC 0.5% or MC 0.5%. Before administration by the po route, animals were fasted for a period of at least 12 h before treatment, and food was given just after the 3 h of blood sampling. All animals had free access to tap water. Blood samples were taken without an anesthetic from a jugular or cephalic vein into tubes containing lithium heparin as an anticoagulant. Blood samples were taken up to 24 h after the start of the infusion. After centrifugation, the resulting plasma samples were assayed by LC-MS/MS with a nongood laboratory practice (non-GLP)-validated method. PK parameters were calculated by noncompartmental analysis using WinNonlin software (Certara, Princeton, NJ, USA).

fraction unbound at 4 h, 5 μM [1]: 0.0003 | fraction unbound at 4 h, 5 μM [2]: 0.0035 | clearance ([3]; male, Sprague-Dawley, plasma, 1 mg/kg, iv dosing, read-out: plasma clearance (converted)): 0.41 mL/min/kg | bioavailability at 24 h ([3]; male, Sprague-Dawley, plasma, 5 mg/kg po): 63.4% | clearance ([3]; male, Sprague-Dawley, plasma, iv, 0.1 mg/kg, formula-strings file, unit inferred, read-out: Cl (converted)): 0.41 mL/min/kg | Vd ([3]; male, Sprague-Dawley, plasma, iv, 0.1 mg/kg, formula-strings file, unit inferred, read-out: Vss): 0.195 L/kg | Vd ([3]; male, Sprague-Dawley, plasma, iv, 1 mg/kg, 1 mg/kg iv, read-out: Vss): 0.2 L/kg | CYP (3A4) mRNA induction, result in words [4]: low CYP3A4 induction | IC50 [5]: 187 nM | IC50 [6]: ≥ 50000 nM | mechanism-based inactivation of CYP3A4 [7]: devoid of mechanism-based inactivation
SMILES: CS(=O)(=O)NC(=O)c1cc(-c2ccc(N3CCC(C#N)CC3)nc2)c2c(C3CCC3)nn(-c3ccccc3)c2n1 [Compound 45]

shift of the potentiator activity ([8]; GLPG1837 potency in triple combination): 1 log unit | Emax ([8]; primary ΔF508 homozygous HBE cells, 24 h incubation, with GLPG2222, read-out: TECC HBE with GLPG2222 % max activation): 534% | EC50 ([8]; primary ΔF508 homozygous HBE cells, 24 h incubation, with GLPG2222, read-out: TECC HBE with GLPG2222 EC50): 39 nM | fraction unbound at 4 h, 5 μM [1]: 0.01 | fraction unbound at 4 h, 5 μM [2]: 0.01 | fraction unbound at 4 h, 5 μM [9]: 0.015 | CLu rat ([3]; iv, unbound clearance): 70 mL/min/kg | clearance ([3]; male, Sprague-Dawley, plasma, 0.1 mg/kg, iv, read-out: CLp rat (converted)): 1 mL/min/kg | half-life ([3]; male, Sprague-Dawley, plasma, 0.1 mg/kg, iv, read-out: t1/2 iv rat (converted)): 4.7 h | Vd ([3]; male, Sprague-Dawley, plasma, iv, 0.1 mg/kg, iv, read-out: Vss rat): 0.4 L/kg | CLu dog ([10]; unbound clearance): 8.3 mL/min/kg | clearance ([10]; male, beagle, plasma, 1 mg/kg, read-out: CLp dog (converted)): 0.333 mL/min/kg | Vd ([10]; male, beagle, plasma, 1 mg/kg, read-out: Vss dog): 0.2 L/kg | half-life ([10]; male, beagle, plasma, 1 mg/kg, read-out: t1/2 iv dog (converted)): 6.6 h | CYP induction @10 μM (mRNA) % rifampicin ([4]; data generated by AbbVie team): 6.7% | CYP induction @10 μM (mRNA) % rifampicin ([4]; data generated by Galapagos): 12% | CYP (3A4) mRNA induction, result in words [4]: devoid of any CYP induction liability
SMILES: CS(=O)(=O)NC(=O)c1cc(N2CCC(N3CCOCC3)CC2)c2c(C3CCC3)nn(-c3ccccc3)c2n1 [Compound 49]

Source: article PMC11017246, “Discovery of GLPG2737, a Potent Type 2 Corrector of CFTR for the Treatment of Cystic Fibrosis in Combination with a Potentiator and a Type 1 Co-corrector” (Journal of Medicinal Chemistry, 2024)
